# Patent US20250092383A1, “COMPOUNDS AND METHODS FOR FBXO22-MEDIATED PROTEIN DEGRADATION” (Northwestern University, priority 2023, published 2025)
# Peptide text beside a SMILES is read from it. * marks the point of attachment. Cbz = O=C(OCc1ccccc1)*
# Legend:
# Assay type in all cases: cell-based
# [1] = biological target: T1, BRD4 (Homo sapiens, UniProt O60885); assay: BRD4 degradation in A549 wild-type and FBXO22-knockout cells (western blot); conditions: 1 and 2 μM, 24 h
# T1 construct: endogenous in cells; host or cells: A549 wild type and FBXO22 knockout
# Source text: (§1) FIGS. 5A-5E show harnessing FBXO22 for the degradation of BRD4 and EML4-ALK. […] The bar graph represents quantification of the BRD4/β-actin protein content. Data are presented as the mean values (n=2 biological independent samples). […] Data are presented as the mean values (n=2 biological independent samples). […] The bar graph represents quantification of the EML4-ALK/β-actin protein content. Data are presented as the mean values (n=2 biological independent samples).
# (§2) Next, the potential of FBXO22 to facilitate the degradation of additional proteins was investigated. Bromodomain-containing protein 4 (BRD4) was chosen due to its notable physiological role and the availability of a selective ligand, JQ1. The compound, 22-JQ1 (3) was synthesized by coupling the FBXO22 binding moiety to JQ1 (FIG. 5a). […] Subsequently, a global proteomic analysis was performed in A549 wild-type and FBXO22-knockout cells treated with 22-JQ1. […] 22-TAE incorporates the FBXO22 binding moiety coupled with a defined anaplastic lymphoma kinase (ALK) ligand (FIG. 5d). FBXO22 knockout was generated in H2228, a non-small cell lung cancer cell line expressing the echinoderm microtubule-associated protein-like 4 (EML4)-ALK fusion protein.
# [2] = biological target: T1, BRD4; assay: Global proteomic analysis in A549 wild-type and FBXO22-knockout cells treated with 22-JQ1; conditions: 2 μM, 24 h
# Source text: as §1, §2
# [3] = biological target: T2, EML4-ALK fusion protein (Homo sapiens, UniProt Q8NEZ5+Q9HC35+Q9UM73); assay: EML4-ALK degradation in H2228 wild-type and FBXO22-knockout cells; conditions: 1 and 2 μM, 24 h
# T2 construct: endogenous in cells; host or cells: H2228 wild type and FBXO22 knockout
# T2 sequence (Q9HC35+Q9UM73 fused): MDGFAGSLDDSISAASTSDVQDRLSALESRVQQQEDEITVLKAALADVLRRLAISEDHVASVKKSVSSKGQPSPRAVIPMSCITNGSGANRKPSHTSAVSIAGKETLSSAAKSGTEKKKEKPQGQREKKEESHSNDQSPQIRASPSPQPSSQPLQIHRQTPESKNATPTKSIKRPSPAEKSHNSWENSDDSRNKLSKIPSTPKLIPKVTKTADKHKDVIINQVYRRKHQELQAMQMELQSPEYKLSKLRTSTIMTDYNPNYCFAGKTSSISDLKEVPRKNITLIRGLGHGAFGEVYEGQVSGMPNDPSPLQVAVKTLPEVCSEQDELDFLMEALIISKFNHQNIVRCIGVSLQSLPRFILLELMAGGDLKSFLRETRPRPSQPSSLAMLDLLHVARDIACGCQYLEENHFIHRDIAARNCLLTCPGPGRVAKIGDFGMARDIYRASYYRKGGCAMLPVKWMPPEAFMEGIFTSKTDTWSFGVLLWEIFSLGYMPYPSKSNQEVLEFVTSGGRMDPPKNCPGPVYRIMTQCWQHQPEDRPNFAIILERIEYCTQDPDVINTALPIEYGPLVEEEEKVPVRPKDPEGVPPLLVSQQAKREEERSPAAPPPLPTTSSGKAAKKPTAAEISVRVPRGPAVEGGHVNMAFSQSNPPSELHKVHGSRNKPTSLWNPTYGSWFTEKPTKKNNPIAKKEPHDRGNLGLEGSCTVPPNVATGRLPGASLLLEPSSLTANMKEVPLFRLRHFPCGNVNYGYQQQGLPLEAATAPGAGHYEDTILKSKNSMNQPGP
# T2 sequence (Q8NEZ5 whole entry, the tested form may be a part): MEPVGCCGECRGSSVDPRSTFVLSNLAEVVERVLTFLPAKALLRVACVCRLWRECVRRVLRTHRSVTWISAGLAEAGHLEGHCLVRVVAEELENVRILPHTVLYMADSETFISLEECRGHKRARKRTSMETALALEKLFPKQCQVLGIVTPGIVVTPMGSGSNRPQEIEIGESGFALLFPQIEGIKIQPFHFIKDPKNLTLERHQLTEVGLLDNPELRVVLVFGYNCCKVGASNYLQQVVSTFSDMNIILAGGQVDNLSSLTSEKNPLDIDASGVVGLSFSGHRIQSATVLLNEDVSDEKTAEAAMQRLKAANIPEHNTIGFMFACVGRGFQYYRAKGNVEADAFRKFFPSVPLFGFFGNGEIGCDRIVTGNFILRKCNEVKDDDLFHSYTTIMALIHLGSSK
# T2 sequence (P63208 2-163 partner limits assumed): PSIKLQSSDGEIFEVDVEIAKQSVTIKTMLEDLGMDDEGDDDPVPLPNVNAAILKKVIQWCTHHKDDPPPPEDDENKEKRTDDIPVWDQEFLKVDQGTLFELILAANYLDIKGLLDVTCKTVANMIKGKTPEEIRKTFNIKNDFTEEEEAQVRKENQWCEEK
# T2 sequence (Q13616 whole entry partner, the tested form may be a part): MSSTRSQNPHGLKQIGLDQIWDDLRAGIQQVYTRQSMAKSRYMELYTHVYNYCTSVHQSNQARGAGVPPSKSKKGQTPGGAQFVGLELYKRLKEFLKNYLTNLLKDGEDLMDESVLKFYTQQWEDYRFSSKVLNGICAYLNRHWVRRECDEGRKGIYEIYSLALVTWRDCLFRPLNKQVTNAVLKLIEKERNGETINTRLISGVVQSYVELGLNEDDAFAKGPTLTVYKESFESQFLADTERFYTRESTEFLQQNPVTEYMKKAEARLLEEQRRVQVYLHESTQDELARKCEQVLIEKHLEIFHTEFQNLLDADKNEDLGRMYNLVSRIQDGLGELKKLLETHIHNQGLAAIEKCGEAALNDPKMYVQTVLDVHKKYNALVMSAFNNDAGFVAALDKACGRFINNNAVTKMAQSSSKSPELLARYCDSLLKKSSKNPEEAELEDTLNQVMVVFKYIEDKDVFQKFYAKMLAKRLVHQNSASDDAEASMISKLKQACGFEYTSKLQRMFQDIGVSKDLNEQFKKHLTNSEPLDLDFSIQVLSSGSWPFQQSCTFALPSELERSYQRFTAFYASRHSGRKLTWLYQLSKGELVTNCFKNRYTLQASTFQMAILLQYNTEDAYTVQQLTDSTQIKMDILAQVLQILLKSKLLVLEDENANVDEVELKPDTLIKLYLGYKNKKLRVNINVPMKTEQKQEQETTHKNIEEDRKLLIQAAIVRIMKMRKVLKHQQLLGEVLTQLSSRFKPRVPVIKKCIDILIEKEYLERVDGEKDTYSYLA
# T2 sequence (P62877 whole entry partner, the tested form may be a part): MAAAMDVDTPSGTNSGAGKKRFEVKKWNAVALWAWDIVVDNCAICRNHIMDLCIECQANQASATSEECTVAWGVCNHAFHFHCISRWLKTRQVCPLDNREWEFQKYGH
# Source text: as §1, §2
# [4] = biological target: FKBP12 (Homo sapiens, UniProt P62942); assay: Western blot of FLAG-FKBP12 degradation in HEK293T cells expressing HA-FBXO22; set-up: expressed in transfected cells; host or cells: HEK293T; conditions: MG132 (1 μM), MLN4924 (1 μM), SLF (25 μM)
# Sequence of FKBP12 (P62942 whole entry): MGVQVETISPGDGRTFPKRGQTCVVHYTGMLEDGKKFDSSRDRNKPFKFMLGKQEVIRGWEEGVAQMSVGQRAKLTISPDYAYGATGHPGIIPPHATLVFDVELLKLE
# Experimental: The bar graph represents quantification of the FLAG-FKBP12/HSP90 protein content. Data are presented as the mean values±s.e.m. […] HEK293T cells expressing HA-FBXO22 were treated with 0.025-15 μM 22-SLF for 8 h. The graph represents quantification of the FLAG-FKBP12/HSP90 protein content. Data are presented as the mean values (n=2 biological independent samples). […] The bar graph represents quantification of the FLAG-FKBP12/HSP90 protein content. KO, knockout; WT, wild type. Data are presented as the mean values (n=2 biological independent samples). […] The bar graph represents quantification of the FLAG-FKBP12/HSP90 protein content. Data are presented as the mean values±s.e.m. […] The result is representative of two independent experiments with similar results. WCL, whole-cell lysate; IP, immunoprecipitate.
# (§3) FIGS. 3A-3H show FBXO22 C227 and C228 are involved in 22-SLF-mediated degradation of FKBP12. […] Among 5,650 quantified IA-DTB-modified peptides, four cysteines were identified on FBXO22 (C83, C117, C228, and C365). […] Data are presented as the mean values (n=2 biological independent samples for DMSO treatment; n=3 biological independent samples for 22-SLF Treatment). […] The bag graph represents quantification of the FLAG-FKBP12/HSP90 protein content. Data are presented as mean values (n=2 biological independent samples). […] The bar graph represents quantification of the FLAG-FKBP12/HSP90 protein content. Data are presented as the mean values (n=2 biological independent samples).
# FIG. 11A-11B show the acrylamide variant of 22-SLF, 22a-SLF, induced the degradation of FKBP12. […] HEK293T cells expressing HA-FBXO22 were treated with 0.5, 1, or 2 μM of 22-SLF or 22a-SLF for 8 hours. The graph represents quantification of the FLAG-FKBP12/HSP90 protein content. Data are presented as mean values (n=2 biological independent samples).
# Next, Western blot analysis was used to measure the degradation of FKBP12 induced by 22-SLF. To achieve this, FLAG-tagged FKBP12 and HA-tagged FBXO22 were stably overexpressed in HEK293T cells, followed by subjecting the cells to varying concentrations of 22-SLF. […] Moreover, 22-SLF's effect on FLAG-FKBP12 degradation was concentration-dependent (FIG. 2a). […] The rescue enabled by MLN4924 indicates the involvement of a Cullin-RING ligase (CRL) in the degradation process. This is consistent with FBXO22 belonging to SKP1-CUL1-F-box protein (SCF) ubiquitin ligase complexes, a subfamily of CRL. […] To provide a more comprehensive insight into 22-SLF-induced FKBP12 degradation, a dose-dependent degradation experiment using 11 concentrations of 22-SLF ranging from […] to 15 μM was conducted. This experiment enabled determination of two parameters, the Dmax value, which reached 89%, and the half-maximal degradation concentration (DC50) value, which measured at 0.5 μM (FIG. 2B). […] Collectively, this array of data supports the canonical mechanism of ligand-induced protein degradation. In this mechanism, 22-SLF orchestrates the recruitment of FBXO22 to FKBP12, culminating in the proteasomal degradation of FKBP12.
# To identify the cysteine residue(s) in FBXO22 engaged with 22-SLF, HA-FBXO22-expressing HEK293T cells were treated with either DMSO or 22-SLF (2 μM, 2 hours). Using competitive cysteine-directed activity-based protein profiling (ABPP), a chemical proteomics for the measurement of target engagement, the degree of blockade of iodoacetamide-desthiobiotin (IA-DTB)-modified cysteines on FBXO22 was quantified. From a pool of 5,650 quantified IA-DTB-modified peptides, four cysteines on FBXO22 (C83, C117, C228, and C365) (FIG. 3a) were identified, with approximately 20% of FBXO22 C228 being blocked by 22-SLF treatment (FIG. 3b), indicating the potential interaction with this cysteine by 22-SLF. Consequently, C228 was mutated to alanine and HA-FBXO22 C228A-expressing HEK293T cells were generated (FIG. 3c). […]
# [5] = biological target: T3, FKBP12 (mouse FBXO22) (UniProt P62942+Q78JE5); assay: FKBP12 degradation in HEK293T cells expressing mouse FBXO22; conditions: HEK293T cells expressing mouse FBXO22 wildtype
# T3 construct: expressed in transfected cells; host or cells: HEK293T
# T3 sequence (P62942 2-108): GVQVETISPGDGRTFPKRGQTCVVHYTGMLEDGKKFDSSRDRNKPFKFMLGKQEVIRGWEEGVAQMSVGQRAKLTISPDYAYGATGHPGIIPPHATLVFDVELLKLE
# T3 sequence (Q78JE5 whole entry): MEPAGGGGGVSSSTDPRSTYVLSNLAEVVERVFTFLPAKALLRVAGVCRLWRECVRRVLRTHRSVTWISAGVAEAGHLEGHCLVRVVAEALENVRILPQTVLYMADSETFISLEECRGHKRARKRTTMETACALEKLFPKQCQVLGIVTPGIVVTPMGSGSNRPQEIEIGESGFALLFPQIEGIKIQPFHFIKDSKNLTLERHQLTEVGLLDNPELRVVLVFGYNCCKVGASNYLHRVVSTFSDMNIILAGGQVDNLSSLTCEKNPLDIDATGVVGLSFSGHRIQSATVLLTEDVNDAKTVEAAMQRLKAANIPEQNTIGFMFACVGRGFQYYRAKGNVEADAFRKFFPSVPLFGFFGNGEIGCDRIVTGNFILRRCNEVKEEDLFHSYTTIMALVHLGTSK
# T3 sequence (P63208 whole entry partner): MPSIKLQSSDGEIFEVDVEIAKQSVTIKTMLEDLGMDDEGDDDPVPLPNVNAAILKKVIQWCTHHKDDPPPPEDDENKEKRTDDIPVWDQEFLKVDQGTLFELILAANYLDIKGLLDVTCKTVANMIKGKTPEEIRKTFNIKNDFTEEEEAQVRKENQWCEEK
# Source text: as §3
# Intriguingly, the peptide sequence containing the two consecutive cysteines (C227 and C228) is identical between human and mouse (FIG. 3f). To explore whether mouse FBXO22 can facilitate 22-SLF-induced FKBP12 degradation and if the conserved cysteines (C226 and C227 in mouse FBXO22) are pivotal, HEK293T cells expressing mouse FBXO22 wildtype, C226A, C227A, and C226AC227A, were generated.
smiles,measurement,setting,value
Cc1sc2c(c1C)C(c1ccc(Cl)cc1)=N[C@@H](CC(=O)NCCCOCCOCCOCCCN(C(=O)CCl)C(C(=O)NCc1ccccc1)c1nc3ccccc3s1)c1nnc(C)n1-2 (stereo partly drawn) [22-JQ1],"BRD4 degradation, A549 FBXO22 knockout cells",[1],abolished upon FBXO22 knockout
same,"BRD4 degradation, A549 wild-type cells",[1],promoted the degradation of BRD4
same,BRD4 degradation in global proteomics,[2],potent degradation of BRD4 in A549 wild-type but not FBXO22-knockout cells
COc1cc(N2CCN(CCOCCOCCN(C(=O)CCl)C(C(=O)NCc3ccccc3)c3nc4ccccc4s3)CC2)ccc1Nc1ncc(Cl)c(Nc2ccccc2S(=O)(=O)C(C)C)n1 (stereo not drawn) [22-TAE],"EML4-ALK degradation, FBXO22-knockout H2228 cells",[3],no such degradation was observed
same,"EML4-ALK degradation, H2228 wild-type cells",[3],induced the degradation of EML4-ALK fusion protein
"CC(C)C[C@@H](C=O)NC(=O)[C@H](CC(C)C)NC(=O)[C@H](CC(C)C)NC(=O)OCc1ccccc1 [MG132, reference compound] (Cbz-Leu-Leu-Leu-aldehyde)",Blockade of 22-SLF-induced loss of FLAG-FKBP12 expression,[4],blocked
same,"Blockade of 22-SLF-induced FKBP12 degradation, mouse FBXO22",[5],blocked
"NS(=O)(=O)OC[C@@H]1C[C@@H](n2ccc3c(N[C@H]4CCc5ccccc54)ncnc32)C[C@@H]1O [MLN4924, reference compound]",Blockade of 22-SLF-induced loss of FLAG-FKBP12 expression,[4],blocked
same,"Blockade of 22-SLF-induced FKBP12 degradation, mouse FBXO22",[5],blocked
